{"source": "patent US9624215B2", "about": "“Amine derivative or salt thereof” (TOYAMA CHEMICAL CO., LTD., priority 2012, dated 2017)"}
{"test_system": "normal human neonatal foreskin epidermal keratinocytes (NHEK-F)", "test": "Cell proliferation inhibition test", "format": "cell-based", "details": "Keratinocyte, 72 h, NHEK-F cells, three days incubation, ATPlite or CellTiterGlo, read-out: IC50 (concentration of the compound at which the cell count is reduced by 50%)", "summary_of_the_method": "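IC50 is the compound level halving cell count relative to untreated wells, with counts from ATP-based luminescence (ATPlite or CellTiterGlo). Readout followed 3 days of compound exposure of overnight-attached neonatal foreskin keratinocytes (2×10^3/well, Humedia-EG2 medium).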", "units": {"IC50": "nM"}}
{"smiles": "O=C(O)c1cc(Cl)ccc1Nc1ccc2c(ccn2-c2cccnc2)c1", "note": "[Example 49, 5-chloro-2-((1-(pyridin-3-yl)-1H-indol-5-yl)amino)benzoic acid]", "IC50": "10 to 100"}
{"smiles": "O=C(O)c1cc(Cl)ccc1Nc1ccc2c(ccn2Cc2cccc(OCc3ccccn3)c2)c1", "note": "[Example 19, 5-chloro-2-((1-(3-(pyridin-2-ylmethoxy)benzyl)-1H-indol-5-yl)amino)benzoic acid]", "IC50": "≤ 10"}
{"smiles": "O=C(O)c1cc(Cl)ccc1Nc1ccc2c(ccn2-c2ccccn2)c1", "note": "[Example 311, 5-chloro-2-((1-(pyridin-2-yl)-1H-indol-5-yl)amino)benzoic acid]", "IC50": "≤ 10"}
{"smiles": "O=C(O)c1cc(C2CC2)cnc1Nc1ccc2c(c1)cc(-c1ccccc1)n2Cc1ccccc1", "note": "[Example 387, 2-((1-benzyl-2-phenyl-1H-indol-5-yl)amino)-5-cyclopropylnicotinic acid]", "IC50": "10 to 100"}
{"smiles": "COc1cnc(Nc2ccc3c(ccn3Cc3ccccc3)c2)c(C(=O)O)c1", "note": "[Example 132, 2-((1-benzyl-1H-indol-5-yl)amino)-5-methoxynicotinic acid]", "IC50": "10 to 100"}
{"smiles": "Cn1ccc2cc(Nc3ncc(C4CC4)cc3C(=O)O)cc(-c3cccc(F)c3)c21", "note": "[Example 465, 5-cyclopropyl-2-((7-(3-fluorophenyl)-1-methyl-1H-indol-5-yl)amino)nicotinic acid]", "IC50": "≤ 10"}
{"smiles": "COCCN(C)c1cccc(Cn2ccc3cc(Nc4ncc(C5CC5)cc4C(=O)O)ccc32)c1", "note": "[Example 511, 5-cyclopropyl-2-((1-(3-((2-methoxyethyl)(methyl)amino)benzyl)-1H-indol-5-yl)amino)nicotinic acid]", "IC50": "≤ 10"}
{"smiles": "O=C(O)c1cc(C2CC2)cnc1Nc1cc(-c2ccccc2)c2[nH]ccc2c1", "note": "[Example 227, 5-cyclopropyl-2-((7-phenyl-1H-indol-5-yl)amino)nicotinic acid]", "IC50": "10 to 100"}
{"smiles": "O=C(O)c1cc(C2CC2)cnc1Nc1cccc2c(N3CCOCC3)nccc12", "note": "[Example 475, 5-cyclopropyl-2-(1-morpholinoisoquinolin-5-ylamino)nicotinic acid]", "IC50": "100 to 1000"}
{"smiles": "O=C(O)c1cc(C2CC2)cnc1Nc1ccc2c(-c3ccccc3)cn(CC3CC3)c2c1", "note": "[Example 45, 5-cyclopropyl-2-((1-(cyclopropylmethyl)-3-phenyl-1H-indol-6-yl)amino)nicotinic acid]", "IC50": "10 to 100"}
{"smiles": "O=C(O)c1cc(C2CC2)cnc1Nc1ccc2ncnc(-c3ccccc3)c2c1", "note": "[Example 533, 5-cyclopropyl-2-((4-phenylquinazolin-6-yl)amino)nicotinic acid]", "IC50": "100 to 1000"}
{"smiles": "O=C(O)c1cc(C2CC2)cnc1Nc1cccc2c(-c3ccccc3)ccnc12", "note": "[Example 187, 5-cyclopropyl-2-((4-phenylquinolin-8-yl)amino)nicotinic acid]", "IC50": "≤ 10"}
{"smiles": "O=C(O)c1cc(C2CC2)cnc1Nc1ccc2[nH]cc(-c3ccccc3)c2c1", "note": "[Example 156, 5-cyclopropyl-2-((3-phenyl-1H-indol-5-yl)amino)nicotinic acid]", "IC50": "100 to 1000"}
{"smiles": "Cn1ccc2cc(Nc3ncc(Cl)cc3C(=O)O)cc(-c3ccccc3)c21", "note": "[Example 625, 5-chloro-2-((1-methyl-7-phenyl-1H-indol-5-yl)amino)nicotinic acid]", "IC50": "10 to 100"}
{"smiles": "O=C(O)c1cc(C2CC2)cnc1Nc1ccc2ccn(-c3ccccc3)c2c1", "note": "[Example 525, 5-cyclopropyl-2-((1-phenyl-1H-indol-6-yl)amino)nicotinic acid]", "IC50": "≤ 10"}
{"smiles": "CCO/C=C/c1cc(Nc2ncc(C3CC3)cc2C(=O)O)cc2ccn(C)c12", "note": "[Example 604, 5-cyclopropyl-2-((7-((E)-2-ethoxyethenyl)-1-methyl-1H-indol-5-yl)amino)nicotinic acid]", "IC50": "10 to 100"}
{"smiles": "O=C(O)c1cc(C2CC2)cnc1Nc1cccc2c(N3CCCCC3)nccc12", "note": "[Example 473, 5-cyclopropyl-2-(1-(piperidin-1-yl)isoquinolin-5-ylamino)nicotinic acid]", "IC50": "10 to 100"}
{"smiles": "O=C(O)c1cc(Cl)ccc1Nc1ccc2c(ccn2-c2ccc(Cl)cc2)c1", "note": "[Example 47, 5-chloro-2-((1-(4-chlorophenyl)-1H-indol-5-yl)amino)benzoic acid]", "IC50": "≤ 10"}
{"smiles": "CCn1c(C(C)(C)C)cc2cc(Nc3ncc(C4CC4)cc3C(=O)O)ccc21", "note": "[Example 158, 2-((2-(tert-butyl)-1-ethyl-1H-indol-5-yl)amino)-5-cyclopropylnicotinic acid]", "IC50": "10 to 100"}
{"smiles": "CC(C)Cn1c(CO)cc2cc(Nc3ncc(C4CC4)cc3C(=O)O)ccc21", "note": "[Example 175, 5-cyclopropyl-2-((2-(hydroxymethyl)-1-isobutyl-1H-indol-5-yl)amino)nicotinic acid]", "IC50": "100 to 1000"}
{"smiles": "Cn1ccc2cc(Nc3ncc(C4CC4)cc3C(=O)O)cc(/C=C/C(C)(C)C)c21", "note": "[Example 594, 5-cyclopropyl-2-((7-((1E)-3,3-dimethylbut-1-en-1-yl)-1-methyl-1H-indol-5-yl)amino)nicotinic acid]", "IC50": "≤ 10"}
{"smiles": "O=C(O)c1nc(C2CC2)ccc1Nc1ccc2c(ccn2Cc2ccccc2)c1", "note": "[Example 210, 3-((1-benzyl-1H-indol-5-yl)amino)-6-cyclopropylpicolinic acid]", "IC50": "10 to 100"}
{"smiles": "Cn1ccc2cc(Nc3ncc(C4CC4)cc3C(=O)O)cc(/C=C/C3CC3)c21", "note": "[Example 469, (E)-5-cyclopropyl-2-((7-(2-cyclopropylvinyl)-1-methyl-1H-indol-5-yl)amino)nicotinic acid]", "IC50": "≤ 10"}
{"smiles": "O=C(O)c1cc(C2CC2)cnc1Nc1cc2ccn(Cc3ccccc3)c2cc1F", "note": "[Example 552, 2-((1-benzyl-6-fluoro-1H-indol-5-yl)amino)-5-cyclopropylnicotinic acid]", "IC50": "≤ 10"}
{"smiles": "O=C(O)c1cc(C2CC2)cnc1Nc1ccc2c(ccn2Cc2ccc(C(F)(F)F)cc2)c1", "note": "[Example 451, 5-cyclopropyl-2-((1-(4-(trifluoromethyl)benzyl)-1H-indol-5-yl)amino)nicotinic acid]", "IC50": "10 to 100"}
{"smiles": "CC(C)Cn1ncc2cc(Nc3ncc(C4CC4)cc3C(=O)O)ccc21", "note": "[Example 541, 5-cyclopropyl-2-((1-isobutyl-1H-indazol-5-yl)amino)nicotinic acid]", "IC50": "10 to 100"}
{"smiles": "COC/C=C/c1cccc(Cn2ccc3cc(Nc4ncc(C5CC5)cc4C(=O)O)ccc32)c1", "note": "[Example 508, (E)-5-cyclopropyl-2-((1-(3-(3-methoxyprop-1-en-1-yl)benzyl)-1H-indol-5-yl)amino)nicotinic acid]", "IC50": "≤ 10"}
{"smiles": "O=C(O)c1cc(C2CC2)cnc1Nc1ccc2c(c1)Cc1ccccc1-2", "note": "[Example 405, 2-((9H-fluoren-2-yl)amino)-5-cyclopropylnicotinic acid]", "IC50": "10 to 100"}
{"smiles": "Cn1ccc2cc(Nc3ncc(C4CC4)cc3C(=O)O)cc(-c3ccc(-c4ccccc4)cc3)c21", "note": "[Example 191, 2-((7-([1,1′-biphenyl]-4-yl)-1-methyl-1H-indol-5-yl)amino)-5-cyclopropylnicotinic acid]", "IC50": "≤ 10"}
{"smiles": "Cn1ccc2cc(Nc3ncc(C4CC4)cc3C(=O)O)cc(C3CCCCC3)c21", "note": "[Example 607, 2-((7-cyclohexyl-1-methyl-1H-indol-5-yl)amino)-5-cyclopropylnicotinic acid]", "IC50": "≤ 10"}
{"smiles": "Cn1ccc2cc(Nc3ncc(C4CC4)cc3C(=O)O)cc(C3=CCCCC3)c21", "note": "[Example 504]", "IC50": "≤ 10"}
{"smiles": "Cc1ccccc1-c1cc(Nc2ncc(C3CC3)cc2C(=O)O)cc2ccn(C)c12", "note": "[Example 476, 5-cyclopropyl-2-((1-methyl-7-(o-tolyl)-1H-indol-5-yl)amino)nicotinic acid]", "IC50": "≤ 10"}
{"smiles": "Cn1cc(-c2ccc(F)cc2)c2cc(Nc3ncc(C4CC4)cc3C(=O)O)ccc21", "note": "[Example 561, 5-cyclopropyl-2-((3-(4-fluorophenyl)-1-methyl-1H-indol-5-yl)amino)nicotinic acid]", "IC50": "10 to 100"}
{"smiles": "CCCn1ccc2c(Nc3ncc(C4CC4)cc3C(=O)O)cccc21", "note": "[Example 419, 5-cyclopropyl-2-((1-propyl-1H-indol-4-yl)amino)nicotinic acid]", "IC50": "10 to 100"}
{"smiles": "COc1cccc(-c2cn(C)c3ccc(Nc4ncc(C5CC5)cc4C(=O)O)cc23)c1", "note": "[Example 577, 5-cyclopropyl-2-((3-(3-methoxyphenyl)-1-methyl-1H-indol-5-yl)amino)nicotinic acid]", "IC50": "100 to 1000"}
{"smiles": "O=C(O)c1cc(Cl)ccc1Nc1ccc2c(c1)c(C(=O)c1ccccc1)cn2Cc1ccccc1", "note": "[Example 86, 2-((3-benzoyl-1-benzyl-1H-indol-5-yl)amino)-5-chlorobenzoic acid]", "IC50": "100 to 1000"}
{"smiles": "O=C(O)c1cc(C2CC2)cnc1Nc1cccc2c(-c3ccccc3)ncnc12", "note": "[Example 531, 5-cyclopropyl-2-((4-phenylquinazolin-8-yl)amino)nicotinic acid]", "IC50": "10 to 100"}
{"smiles": "Cn1ccc2cc(Nc3ncc(C4CC4)cc3C(=O)O)cc(-c3cccc(OC(F)(F)F)c3)c21", "note": "[Example 492, 5-cyclopropyl-2-((1-methyl-7-(3-(trifluoromethoxy)phenyl)-1H-indol-5-yl)amino)nicotinic acid]", "IC50": "≤ 10"}
{"smiles": "O=C(O)c1cc(Cl)ccc1Nc1ccc2c(ccn2Cc2cscn2)c1", "note": "[Example 302, 5-chloro-2-((1-(thiazol-4-ylmethyl)-1H-indol-5-yl)amino)benzoic acid]", "IC50": "10 to 100"}
{"smiles": "N#Cc1ccccc1Cn1ccc2cc(Nc3ncc(C4CC4)cc3C(=O)O)ccc21", "note": "[Example 452, 2-((1-(2-cyanobenzyl)-1H-indol-5-yl)amino)-5-cyclopropylnicotinic acid]", "IC50": "10 to 100"}
{"smiles": "CCc1cc(Nc2ncc(C3CC3)cc2C(=O)O)cc2ccn(CC)c12", "note": "[Example 413, 5-cyclopropyl-2-((1,7-diethyl-1H-indol-5-yl)amino)nicotinic acid]", "IC50": "10 to 100"}
{"smiles": "CC(C)n1ccc2ccc(Nc3ncc(C4CC4)cc3C(=O)O)cc21", "note": "[Example 519, 5-cyclopropyl-2-((1-isopropyl-1H-indol-6-yl)amino)nicotinic acid]", "IC50": "10 to 100"}
{"smiles": "O=C(O)c1cc(Cl)ccc1Nc1ccc2c(ccn2Cc2ccc3ccccc3n2)c1", "note": "[Example 251, 5-chloro-2-((1-(quinolin-2-ylmethyl)-1H-indol-5-yl)amino)benzoic acid]", "IC50": "10 to 100"}
{"smiles": "O=C(O)c1cc(C2CC2)cnc1Nc1ccc2c(-c3ccccc3)nccc2c1", "note": "[Example 527, 5-cyclopropyl-2-((1-phenylisoquinolin-6-yl)amino)nicotinic acid]", "IC50": "≤ 10"}
